According to patent US11465983B2, “USP7 inhibitors for treating multiple myeloma” (Dana-Farber Cancer Institute, Inc., priority 2017, dated 2022):

Target: USP7 (Homo sapiens, UniProt Q93009)
Test: Ub-AMC assay (USP7 assay)
Type: biochemical
Design: fused on or other part: His tag from pET28aLIC; removed by thrombin for the catalytic domain, no removal step given for the full length
Conditions: USP7 assay
Protocol: USP7 and mutants were tested for their activity in Ubiquitin-AMC assay in presence or absence of inhibitors. […] For the same assay USP7 full length WT and Q351 mutant were used at 50 nM. […] The reaction was incubated 30 min at room temperature prior to the addition of 2 uM Ubiquitin-AMC (Boston Biochem) substrate. […] The calculated initial rate values were plotted against inhibitor concentrations to determine IC50s. All the experimental data were plotted using Prism GraphPad. FIG. 2A illustrates the structure guided optimization for the inhibition of USP7.
ND refers to not disclosed.

Chain of USP7 (Q93009 208-560 limits assumed): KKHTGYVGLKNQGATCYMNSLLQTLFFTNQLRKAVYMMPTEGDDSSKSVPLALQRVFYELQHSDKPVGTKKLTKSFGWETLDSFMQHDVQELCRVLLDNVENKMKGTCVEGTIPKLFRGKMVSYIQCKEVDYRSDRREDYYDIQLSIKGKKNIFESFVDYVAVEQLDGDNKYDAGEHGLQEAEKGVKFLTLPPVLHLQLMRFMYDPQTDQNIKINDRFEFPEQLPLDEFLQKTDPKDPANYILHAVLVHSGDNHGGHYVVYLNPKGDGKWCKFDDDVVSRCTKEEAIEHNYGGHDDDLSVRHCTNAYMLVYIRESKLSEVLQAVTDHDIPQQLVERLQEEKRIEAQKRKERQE

| Compound | IC50 [µM] |
| --- | --- |
| C[C@H](CC(=O)N1CCC(O)(Cn2cnc3cc(Cl)ccc3c2=O)CC1)c1ccccc1 [Compound 1, (R)-7-Chloro-3-((4-hydroxy-1-(3-phenylbutanoyl)piperidin-4-yl)methyl)quinazolin-4(3H)-one] | < 0.2 |
| O=C([C@@H]1C[C@H]1c1ccccc1)N1CCC(O)(Cn2cnc3cc(Cl)ccc3c2=O)CC1 [Compound 74] | > 10 |
| C[C@H](CC(=O)N1CCC(O)(Cn2cnc3cc(N)ccc3c2=O)CC1)c1ccccc1 [Compound 101] | 0.2 to 1 |
| O=C(NCCCCC(=O)N1CCC(O)(Cn2cnc3cc(Cl)ccc3c2=O)CC1)c1ccc2c(c1)CCCN2C(=O)CCl [Compound 19] | 1 to 10 |
| O=C(CCc1ccc(F)cc1)N1CCC(O)(Cn2cnc3cc(Cl)ccc3c2=O)C1 (centres unmarked) [Compound 66] | > 10 |
| O=C(CCc1ccc2c(Cl)c3c(nc2c1)CCCC3)NCCC(=O)N1CCC(O)(Cn2cnc3cc(Cl)ccc3c2=O)CC1 [Compound 97] | > 10 |
| O=C(NCCCC(=O)N1CCC(O)(Cn2cnc3cc(Cl)ccc3c2=O)CC1)c1ccc2c(Cl)c3c(nc2c1)CCCC3 [Compound 84] | 1 to 10 |
| O=c1c2ccc(Cl)cc2ncn1CC1(O)CCN(c2cc([N+](=O)[O-])ccn2)CC1 [Compound 83] | > 10 |
| O=C(NCCCC(=O)N1CCC(Cn2cnc3cc(Cl)ccc3c2=O)CC1)c1ccc2c(Cl)c3c(nc2c1)CCCC3 [Compound 100] | > 10 |
| CC(=O)Nc1ccc2c(=O)n(CC3(O)CCN(C(=O)CCc4ccccc4)CC3)cnc2c1 [Compound 64] | 1 to 10 |
| O=C([C@H]1C[C@@H]1c1ccccc1)N1CCC(O)(Cn2cnc3cc(Cl)ccc3c2=O)CC1 [Compound 75] | > 10 |
| C[C@H](CC(=O)N1CCC(O)(Cn2cnc3c(N)cccc3c2=O)CC1)c1ccccc1 [Compound 103] | 1 to 10 |
| O=C(CCc1ccccc1)N1CCC(Cn2cnc3cc(Cl)ccc3c2=O)CC1 [Compound 60] | > 10 |
| COc1ccc(CCC(=O)N2CCC(O)(Cn3cnc4cc(Cl)ccc4c3=O)CC2)cc1 [Compound 53] | > 10 |
| O=C(CCc1ccccn1)N1CCC(O)(Cn2cnc3cc(Cl)ccc3c2=O)CC1 [Compound 34] | > 10 |
| C=CC(=O)NCCCC(=O)N1CCC(O)(Cn2cnc3cc(Cl)ccc3c2=O)CC1 [Compound 46] | > 10 |
| [N-]=[N+]=NCCOCCOCC(=O)Nc1ccc2c(=O)n(CC3(O)CCN(C(=O)CCc4ccccc4)CC3)cnc2c1 [Compound 63] | > 10 |
| CC(C(=O)N1CCC(O)(Cn2cnc3cc(Cl)ccc3c2=O)CC1)C(C)c1ccccc1 (centres unmarked) [Compound 93] | 1 to 10 |
| N[C@H](Cc1ccccc1)C(=O)N1CCC(O)(Cn2cnc3cc(Cl)ccc3c2=O)CC1 [Compound 21] | > 10 |
| CC(CC(=O)N1CCC(O)(Cn2cnc3cc(NC(=O)CCN4CCN(C)CC4)ccc3c2=O)CC1)c1ccccc1 (centres unmarked) [Compound 12] | 0.2 to 1 |
| CC(=O)Nc1ccc2c(=O)n(CC3(O)CCN(C(=O)C[C@@H](C)c4ccccc4)CC3)cnc2c1 [Compound 102] | 0.2 to 1 |
| O=C(CCc1cccnc1)N1CCC(O)(Cn2cnc3cc(Cl)ccc3c2=O)CC1 [Compound 35] | > 10 |
| C[C@@H](c1ccccc1)N(C)C(=O)N1CCC(O)(Cn2cnc3cc(Cl)ccc3c2=O)CC1 [Compound 42] | > 10 |
| COc1ccccc1CCC(=O)N1CCC(O)(Cn2cnc3cc(Cl)ccc3c2=O)CC1 [Compound 87] | > 10 |
| O=C(NCCCn1cnc2cc(Cl)ccc2c1=O)c1ccc2c(Cl)c3c(nc2c1)CCCC3 [Compound 85] | > 10 |
| Nc1ccc2ncn(CC3(O)CCN(C(=O)CCc4ccccc4)CC3)c(=O)c2c1 [Compound 69] | > 10 |
| O=c1c2ccc(Cl)cc2ncn1CC1(O)CCN(C(=S)NCc2ccccc2)CC1 [Compound 37] | > 10 |

| Compound | IC50 [µM] |
| --- | --- |
| O=C(CCc1ccc(F)cc1)N1CCC(O)(Cn2cnc3cc(Cl)ccc3c2=O)CC1 [Compound 54] | 0.2 to 1 |
| CN(CC(=O)N1CCC(O)(Cn2cnc3cc(Cl)ccc3c2=O)CC1)c1ccccc1 [Compound 79] | > 10 |
| Cc1cccc(CCC(=O)N2CCC(O)(Cn3cnc4cc(Cl)ccc4c3=O)CC2)c1 [Compound 89] | > 10 |
| O=c1c2ccc(Cl)cc2ncn1CC1(O)CCN(c2cccnc2)CC1 [Compound 77] | > 10 |
| CCN(CC(=O)N1CCC(O)(Cn2cnc3cc(Cl)ccc3c2=O)CC1)c1ccccc1 [Compound 80] | > 10 |
| Cn1cc(C(=O)CCl)cc1C(=O)NCCCCC(=O)N1CCC(O)(Cn2cnc3cc(Cl)ccc3c2=O)CC1 [Compound 18] | 1 to 10 |
| 7-Chloro-3-((4-hydroxy-1-(3-phenylpropyl)piperidin-4-yl)methyl)quinazolin-4(3H)-one [Compound 4] | > 10 |
| CCN(Cc1ccccc1)C(=O)N1CCC(O)(Cn2cnc3cc(Cl)ccc3c2=O)CC1 [Compound 39] | 0.2 to 1 |
| Nc1ccc2c(c1)NCN(CC1(O)CCN(C(=O)CCc3ccccc3)CC1)C2=O [Compound 58] | > 10 |
| O=C(CCc1ccncc1)N1CCC(O)(Cn2cnc3cc(Cl)ccc3c2=O)CC1 [Compound 52] | > 10 |
| O=C(CCl)NCCC(=O)N1CCC(O)(Cn2cnc3cc(Cl)ccc3c2=O)CC1 [Compound 44] | > 10 |
| CN1CCN(CCC(=O)Nc2ccc3c(=O)n(CC4(O)CCN(C(=O)CC(c5ccccc5)c5ccccc5)CC4)cnc3c2)CC1 [Compound 48] | < 0.2 |
| COC(Cc1ccccc1)C(=O)N1CCC(O)(Cn2cnc3cc(Cl)ccc3c2=O)CC1 (centres unmarked) [Compound 92] | 1 to 10 |
| O=C(C#Cc1ccccc1)N1CCC(O)(Cn2cnc3cc(Cl)ccc3c2=O)CC1 [Compound 67] | > 10 |
| O=C(CCc1ccccc1)N1CCC(Cn2cnc3cc(Cl)ccc3c2=O)CC1 [Compound 2, 7-Chloro-3-((1-(3-phenylpropanoyl)piperidin-4-yl)methyl)quinazolin-4(3H)-one] | < 0.2 |
| O=C(CCn1cccc1)N1CCC(O)(Cn2cnc3cc(Cl)ccc3c2=O)CC1 [Compound 51] | > 10 |
| O=C(NCc1ccccc1)N1CCC(O)(Cn2cnc3cc(Cl)ccc3c2=O)CC1 [Compound 36] | > 10 |
| CC(CC(=O)N1CCC(O)(Cn2cnc3cc(NC(=O)CCn4ccnc4)ccc3c2=O)CC1)c1ccccc1 (centres unmarked) [Compound 16] | < 0.2 |
| O=C(CCC1CCCCC1)N1CCC(O)(Cn2cnc3cc(Cl)ccc3c2=O)CC1 [Compound 55] | > 10 |
| O=C(C(Cc1ccccc1)c1ccccc1)N1CCC(O)(Cn2cnc3cc(Cl)ccc3c2=O)CC1 (centres unmarked) [Compound 95] | > 10 |
| O=C(NCC(=O)N1CCC(O)(Cn2cnc3cc(Cl)ccc3c2=O)CC1)c1ccc2c(Cl)c3c(nc2c1)CCCC3 [Compound 96] | > 10 |
| CC(C)C(CC(=O)N1CCC(O)(Cn2cnc3cc(NC(=O)CCN4CCN(C)CC4)ccc3c2=O)CC1)c1ccccc1 (centres unmarked) [Compound 47] | < 0.2 |
| CC(C)(C)C(=O)N1CCC(O)(Cn2cnc3cc(Cl)ccc3c2=O)CC1 [Compound 76] | > 10 |
| CC(C)C(Cc1ccccc1)C(=O)N1CCC(O)(Cn2cnc3cc(Cl)ccc3c2=O)CC1 (centres unmarked) [Compound 91] | 0.2 to 1 |
| O=C(C1CCc2ccccc2C1)N1CCC(O)(Cn2cnc3cc(Cl)ccc3c2=O)CC1 (centres unmarked) [Compound 25] | > 10 |
| O=C(/C=C/c1ccccc1)N1CCC(O)(Cn2cnc3cc(Cl)ccc3c2=O)CC1 [Compound 26] | > 10 |
